Data on two compounds can be found in US8410089B2, “Fused heterocyclic ring compound” (Takeda Pharmaceutical Company Limited, priority 2009, dated 2013).

Experiment [1] concerns the target T1, human GPR119 (Homo sapiens, UniProt Q8TDV5).
T1 construct: expressed in transfected cells
T1 sequence (Q8TDV5 1-335): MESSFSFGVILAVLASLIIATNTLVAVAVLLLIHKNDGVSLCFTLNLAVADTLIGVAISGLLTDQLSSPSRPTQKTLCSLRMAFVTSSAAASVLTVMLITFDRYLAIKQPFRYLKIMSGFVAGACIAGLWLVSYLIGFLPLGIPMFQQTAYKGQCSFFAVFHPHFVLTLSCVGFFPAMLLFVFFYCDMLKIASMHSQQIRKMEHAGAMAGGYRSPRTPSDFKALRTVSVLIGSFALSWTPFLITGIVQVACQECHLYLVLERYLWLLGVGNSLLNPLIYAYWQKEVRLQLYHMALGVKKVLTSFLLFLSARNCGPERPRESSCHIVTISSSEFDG
Kind of experiment: Human GPR119 agonist activity with increase of intracellular cAMP concentration as index (CRE-luciferase reporter assay in hGPR119/CRE-luc/CHO(dhfr-) cells). In kind it is cell-based. Conditions: 1 μM test compound, 2 hr incubation; luciferase activity with 10 μM N-[4-(methylsulfonyl)phenyl]-5-nitro-6-{4-[4-(trifluoromethoxy)phenoxy]piperidin-1-yl}pyrimidin-4-amine = 100%, DMSO = 0%. The method, then: Evaluation of Human GPR119 Agonist Activity with Increase of Intracellular Camp Concentration as Index
(1) Construction of Expression Plasmid of Human GPR119 Gene
Using High Fidelity RNA PCR Kit (Takara Bio Inc.), human GPR119 gene was cloned by PCR using cDNA library synthesized from human brain mRNA (Clontech) as a template and synthetic DNA having the following sequence. Primer 1 and Primer 2 were is prepared by adding cleavage sites for Sal I and Nhe I based on the base sequence information of human GPR119 gene.
PCR was performed using Pyrobest DNA polymerase (Takara Bio Inc.). The obtained PCR product was cloned to pUC118 (Takara Bio Inc.), and the base sequence was […] and digested with restriction enzymes Sal I, Nhe I. The obtained DNA fragment was inserted into an animal cell expression vector pAKKO-111H (plasmid same as pAKKO-1.111H described in Biochem. Biophys. Acta, Hinuma, S. et al., 1219, 251-259 (1994)) similarly digested with Sal I, Nhe I, whereby an expression plasmid pAKKO-111H/hGPR119 was prepared.
(2) Construction of Reporter Plasmid
Zeocin resistance gene was cloned by PCR using plasmid pcDNA3.1/Zeo (Invitrogen) as a template, synthetic DNA having the following sequences wherein cleavage sites for restriction enzymes Sal I and BamH I are added to before and after a region containing SV40 Ori and a region containing SV40pA, which are located at the upstream and downstream of Zeocin resistance gene of this plasmid, as a primer set, and KOD polymerase (TOYOBO).
The obtained PCR product was inserted into pCR-BluntII (Invitrogen). A fragment containing a Zeocine resistance gene obtained by digesting the plasmid with restriction enzymes Sal I and BamH I was inserted into plasmid pGL3(R2.2)-Basic Vector (promega) similarly digested with Sal I and Bam HI to give Zeocin resistance plasmid pGL3(R2.2)/Zeocin-Basic Vector.
A reporter plasmid containing 4 cAMP responsive elements (CRE) connected in tandem was prepared using the following 5′-terminal phosphorylated synthetic DNA.
First, a DNA fragment containing a CRE sequence obtained by annealing CRE-Upper and CRE-Lower and elongating with KOD polymerase was inserted into pCR-BluntII to give pCR-BluntII-CRE. A fragment cleaved from pCR-BluntII-CRE with restriction enzymes Kpn I and Hind III was inserted into pGL3(R2.2)/Zeocin-Basic Vector similarly digested with Kpn I and Hind III to give reporter plasmid pGL3(R2.2)/Zeocin-CRE-luc.
(3) Introduction of Human GPR119 Gene and Reporter Gene into CHO(dhfr-) Cells and Acquirement of Expressing Cell
CHO(dhfr-) cells in MEMα (minimum essential medium alpha) (Nikken bio medical laboratory) medium containing 10% fetal bovine serum, 100 U/mL penicillin and 100 μg/mL streptomycin (Invitrogen) were detached by a treatment with trypsin-EDTA (ethylenediaminetetraacetic acid) (Invitrogen), the cells were washed with PBS (Phosphate-buffered saline), centrifuged (1000 rpm, 5 min) and suspended in PBS at a cell density of 1×10^7 cells/mL. Then, DNA was introduced into the cell by a gene pulser (Bio-Rad) under the following conditions. That is, 1×10^7 cells, plasmid pGL3(R2.2)/Zeocin-CRE-luc (15 μg), which was obtained in (2) and linearized with BssH II, and pAKKO-111H (5 μg) were added in a 0.4 cm gap cuvette, and the mixture was electroporated at voltage […], capacitance 950 μF. The cells were placed in the above-mentioned medium, cultured for 24 hr, and the cells were detached and centrifuged. The cells were diluted to 250 cells/well, plated in a 96 well plate (Corning) and cultivated in a CO2 incubator at 37° C. to give a transformant. Then, forskolin was added to the obtained transformant and a strain (CRE-luc/CHO(dhfr-) cell) that induces luciferase expression was selected. […]

The subject of experiment [2] is male Wistar fatty rats. Kind of experiment: Oral glucose tolerance test (OGTT), hypoglycemic action. In kind it is in vivo, rat. Particulars: 10 mg/kg oral; for blood glucose lowering rate (%): OGTT in WF rats, decrease rate of AUC0-120min with control group as 100%, **p ≦ 0.01 vs control; for plasma glucose AUC0-120 min: 22-week-old WF rats fasted overnight, glucose 1 g/kg oral 60 min after compound, control group 32734.2. The procedure: A hypoglycemic action of the compound of the present invention was examined in an oral glucose tolerance test (OGTT) using male Wistar fatty rats (WF rat, TAKEDA RABICS).
First, 22-week-old WF rats fasted overnight were divided into groups (6 per group), and blood samples were collected and used as plasma samples before drug administration (−60 min). Thereafter, 0.5% methylcellulose (control group) and a test compound was orally administered at 10 mg/kg. At 60 min after compound administration, each individual was loaded by oral administration of glucose at 1 g/kg, and the blood was drawn before glucose loading (0 min) and 10, 30, 60 and 120 min after loading. The plasma glucose concentration was measured using L type Waco Glu2 (Wako) and Hitachi automatic analyzer 7080 (Hitachi Instruments Service Co., Ltd.). The 0-120 min area under time curve (AUC0-120min) and the decrease rate when the control group was 100% were calculated from the plasma glucose values measured.

With `CC(C)c1noc(N2CCC(Oc3cc(N4CCc5cc(S(C)(=O)=O)ccc54)ncn3)CC2)n1` [Example 38, 1-[6-({1-[3-(1-methylethyl)-1,2,4-oxadiazol-5-yl]piperidin-4-yl}oxy)pyrimidin-4-yl]-5-(methylsulfonyl)-2,3-dihydro-1H-indole], the “GPR119 agonist activity (%) at 1 μM concentration” value in experiment [1] is on record as 79%. Moreover, in experiment [2], the “blood glucose lowering rate (%)” value is listed as 24.8** % and the “plasma glucose AUC0-120 min” value is 24612.5 mg·min/dL.

For the compound `CC(C)SC(=O)N1CCC(Oc2cc(N3CCc4cc(S(C)(=O)=O)ccc43)ncn2)CC1` [Example 35, S-(1-methylethyl)4-({6-[5-(methylsulfonyl)-2,3-dihydro-1H-indol-1-yl]pyrimidin-4-yl}oxy)piperidine-1-carbothioate], the “GPR119 agonist activity (%) at 1 μM concentration” value in experiment [1] is recorded as 82%. For the same compound, in experiment [2], the “blood glucose lowering rate (%)” value was 23.0** % and the “plasma glucose AUC0-120 min” value was determined as 25212.5 mg·min/dL.
